Residues, ends and D or L forms follow the SMILES beside them.
System: moAb A1 (anti-gliadin 33-mer)
Experiment: A1 competitive ELISA (immobilized gliadin, A1-HRP)
Type: binding
Conditions: Figure 2A
Experimental: Maxisorp microtitre plates (Nunc, Roskilde, Denmark) were coated with gliadin solution (Sigma, St Louis, MO, USA) and incubated overnight at 4°C. The plates were washed with phosphate-buffered saline (PBS) containing 0.05% Tween 20 and blocked with 5% non-fat dry milk in PBS for 1 h at room temperature (RT). 33-mer peptide was used as standard. Serial dilutions of peptides were made in PBS-bovine serum albumin (BSA) 3%, to each of which was added G12-HRP or A1-HRP antibody solution [14]. The samples were pre-incubated at RT, and then added to the wells. After 30 min of incubation at RT, the plates were washed and substrate solution (TMB, Sigma) was added. The reaction was stopped with 1 M sulphuric acid, and the absorbance at 450 nm was measured (microplate reader UVM340; Asys Hitech GmbH, Eugendorf, Austria). Two separate assays were performed, each with three repetitions.
Peptide curves were obtained by plotting percentage maximum absorbance against logarithm of antigen concentration. The software package Sigma Plot 9.0 (Systat Software, Inc., Point Richmond, CA, USA) was used to calculate IC50 and the cross-reactivity (CR) for each peptide. The IC50 is defined as the concentration that produces a reduction of 50% in the peak signal in the ELISA. The CR was determined as (IC50 of the peptide that presents the greatest affinity for the antibody/IC50 of each peptide assayed) x 100.

- moAb A1 IC50 (competitive ELISA, gliadin-coated plates, A1-HRP, 30 min RT, absorbance 450 nm, two assays, three replicates each): 0.60 mg/L
SMILES: CC(C)C[C@H](NC(=O)[C@H](CCC(N)=O)NC(=O)[C@@H](N)CC(C)C)C(=O)N[C@@H](CCC(N)=O)C(=O)N1CCC[C@H]1C(=O)N[C@@H](Cc1ccccc1)C(=O)N1CCC[C@H]1C(=O)N[C@@H](CCC(N)=O)C(=O)N1CCC[C@H]1C(=O)N[C@@H](CCC(N)=O)C(=O)N[C@@H](CC(C)C)C(=O)N1CCC[C@H]1C(=O)N[C@@H](Cc1ccc(O)cc1)C(=O)N1CCC[C@H]1C(=O)N[C@@H](CCC(N)=O)C(=O)N1CCC[C@H]1C(=O)N[C@@H](CCC(N)=O)C(=O)N[C@@H](CC(C)C)C(=O)N1CCC[C@H]1C(=O)N[C@@H](Cc1ccc(O)cc1)C(=O)N1CCC[C@H]1C(=O)N[C@@H](CCC(N)=O)C(=O)N1CCC[C@H]1C(=O)N[C@@H](CCC(N)=O)C(=O)N[C@@H](CC(C)C)C(=O)N1CCC[C@H]1C(=O)N[C@@H](Cc1ccc(O)cc1)C(=O)N1CCC[C@H]1C(=O)N[C@@H](CCC(N)=O)C(=O)N1CCC[C@H]1C(=O)N[C@@H](CCC(N)=O)C(=O)N1CCC[C@H]1C(=O)N[C@@H](Cc1ccccc1)C(=O)O [33-mer] (H-LQLQPFPQPQLPYPQPQLPYPQPQLPYPQPQPF-OH; N-terminus and C-terminus assumed)
- moAb A1 CR (cross-reactivity = (IC50 of peptide with greatest affinity / IC50 of each peptide) x 100, PP 24.1 = 100): 241.67%

— publication PMC4071002, “Identification and In Vitro Reactivity of Celiac Immunoactive Peptides in an Apparent Gluten-Free Beer” (PLoS ONE, 2014)
